Test results: US20030004201A1, “Medicament” (SmithKline Beecham p.l.c., priority 1990, published 2003)
Counter-ions that a name gives are not always drawn.

| SMILES | melting point |
| --- | --- |
| CCCSc1ncc(C[C@H](NC(=O)CCC)C(=O)O)n1Cc1ccccc1Cl [Example 1, 3-[(2-Chlorophenyl)methyl]-2-propylthio-N-butyrylhistidine] | 178 to 181 °C |
| CCCCc1ncc(CC(Cc2ccccc2)C(=O)O)n1Cc1ccccc1Cl (stereo not drawn) (as salt: hydrochloride) [Example 2, 3-[2-n-Butyl-1-{(2-chlorophenyl)methyl}-1H-imidazol-5-yl]-2-benzylpropanoic Acid] | 118 to 120 °C |
| CCCCc1nc2cc(Br)cc(C(=O)O)c2n1Cc1ccccc1Cl [Example 4, 5-Bromo-2-n-butyl-1-(2-chlorophenyl)methyl-1H-benzimidazole-7-carboxylic Acid] | 254 to 255 °C |
